Results published in paper PMC7265341, “Quantifying CDK inhibitor selectivity in live cells” (Nature Communications, 2020).
pIC50: −log10 of the molar value. Like-named read-outs stand apart in the source and are kept apart here. One block for each compound: values may come before it.

Columns and labels:
CDK2/Cyclin E1 = CDK2/Cyclin E1 (Homo sapiens, UniProt P24941); assay: NanoBRET live-cell target engagement, CDK2-NanoLuc/Cyclin E1 in HEK-293; type: binding; details: for IC50: CDK2/E1
CDK7 = CDK7 (Homo sapiens, UniProt P50613); assay: NanoBRET live-cell target engagement, NanoLuc-CDK7 in HEK-293; type: binding; details: CDK7, 10µM
CDK8/Cyclin C = CDK8/Cyclin C (Homo sapiens, UniProt P49336); assay: NanoBRET live-cell target engagement, NanoLuc-CDK8/Cyclin C in HEK-293; type: binding; details: CDK8/C, 10µM
CDK9/Cyclin K = CDK9/Cyclin K (Homo sapiens, UniProt P50750); assay: NanoBRET live-cell target engagement, NanoLuc-CDK9/Cyclin K in HEK-293; type: binding; details: CDK9/K, 10µM
CDK12/Cyclin K = CDK12/Cyclin K (Homo sapiens, UniProt Q9NYV4); assay: NanoBRET live-cell target engagement, CDK12-NanoLuc/Cyclin K in HEK-293; type: binding; details: CDK12/K, 10µM
CDK13/Cyclin K = CDK13/Cyclin K (Homo sapiens, UniProt Q14004); assay: NanoBRET live-cell target engagement, CDK13-NanoLuc/Cyclin K in HEK-293; type: binding; details: CDK13/K, 10µM
CDK20/Cyclin H = CDK20/Cyclin H (Homo sapiens, UniProt Q8IZL9); assay: NanoBRET live-cell target engagement, NanoLuc-CDK20/Cyclin H in HEK-293; type: binding; details: CDK20/H, 10µM
CDK19/Cyclin C = CDK19/Cyclin C (Homo sapiens, UniProt Q9BWU1); assay: NanoBRET live-cell target engagement, NanoLuc-CDK19/Cyclin C in HEK-293; details: 10µM
CDK10/Cyclin L2 = CDK10/Cyclin L2 (Homo sapiens, UniProt Q15131); assay: NanoBRET live-cell target engagement, CDK10-NanoLuc/Cyclin L2 in HEK-293; details: 10µM
[1] = average of replicates, read-out: Inhibition at 10µM (%) Average
[2] = read-out: Inhibition at 10µM (%) Replicate 1
[3] = read-out: Inhibition at 10µM (%) Replicate 2

Sequence of CDK9/Cyclin K (P50750 whole entry): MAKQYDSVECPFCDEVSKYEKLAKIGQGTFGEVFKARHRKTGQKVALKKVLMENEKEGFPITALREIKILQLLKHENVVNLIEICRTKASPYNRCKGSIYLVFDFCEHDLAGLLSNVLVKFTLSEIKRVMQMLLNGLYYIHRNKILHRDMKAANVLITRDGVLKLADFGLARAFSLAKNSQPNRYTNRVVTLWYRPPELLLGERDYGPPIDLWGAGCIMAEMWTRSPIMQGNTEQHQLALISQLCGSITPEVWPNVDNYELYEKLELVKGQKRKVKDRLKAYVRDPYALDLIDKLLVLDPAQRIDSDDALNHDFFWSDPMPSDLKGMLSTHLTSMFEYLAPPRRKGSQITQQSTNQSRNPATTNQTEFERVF
Sequence of CDK9/Cyclin K (O75909 whole entry partner): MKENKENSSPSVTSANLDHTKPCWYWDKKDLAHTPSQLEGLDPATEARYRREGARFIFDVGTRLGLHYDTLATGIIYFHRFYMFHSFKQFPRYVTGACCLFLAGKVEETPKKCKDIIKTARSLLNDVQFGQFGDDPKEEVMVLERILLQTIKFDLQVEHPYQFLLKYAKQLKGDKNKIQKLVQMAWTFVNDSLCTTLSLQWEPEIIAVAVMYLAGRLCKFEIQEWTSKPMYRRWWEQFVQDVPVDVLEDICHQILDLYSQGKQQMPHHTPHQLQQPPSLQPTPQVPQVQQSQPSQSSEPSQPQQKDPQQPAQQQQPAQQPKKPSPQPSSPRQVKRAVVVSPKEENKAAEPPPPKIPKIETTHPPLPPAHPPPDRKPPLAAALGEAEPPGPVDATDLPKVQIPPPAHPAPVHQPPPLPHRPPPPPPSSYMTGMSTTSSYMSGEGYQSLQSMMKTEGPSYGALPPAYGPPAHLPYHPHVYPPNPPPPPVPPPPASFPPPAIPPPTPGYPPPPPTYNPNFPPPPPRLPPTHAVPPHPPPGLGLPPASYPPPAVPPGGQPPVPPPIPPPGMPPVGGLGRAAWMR
Sequence of CDK10/Cyclin L2 (Q15131 whole entry): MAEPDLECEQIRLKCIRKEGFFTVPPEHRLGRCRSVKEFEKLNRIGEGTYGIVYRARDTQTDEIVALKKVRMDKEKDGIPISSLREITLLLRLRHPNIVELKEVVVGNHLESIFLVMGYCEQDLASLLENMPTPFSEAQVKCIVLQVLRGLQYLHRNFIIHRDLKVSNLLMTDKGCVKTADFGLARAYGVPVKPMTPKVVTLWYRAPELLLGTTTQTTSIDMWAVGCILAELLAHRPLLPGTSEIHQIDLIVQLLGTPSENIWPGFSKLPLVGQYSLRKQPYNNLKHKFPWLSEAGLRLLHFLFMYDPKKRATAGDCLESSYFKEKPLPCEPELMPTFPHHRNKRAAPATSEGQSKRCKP
Sequence of CDK13/Cyclin K (O75909 whole entry): as the sequence (O75909 whole entry partner) above
Sequence of CDK13/Cyclin K (Q14004 other isoform, or with tags, fused parts or gaps): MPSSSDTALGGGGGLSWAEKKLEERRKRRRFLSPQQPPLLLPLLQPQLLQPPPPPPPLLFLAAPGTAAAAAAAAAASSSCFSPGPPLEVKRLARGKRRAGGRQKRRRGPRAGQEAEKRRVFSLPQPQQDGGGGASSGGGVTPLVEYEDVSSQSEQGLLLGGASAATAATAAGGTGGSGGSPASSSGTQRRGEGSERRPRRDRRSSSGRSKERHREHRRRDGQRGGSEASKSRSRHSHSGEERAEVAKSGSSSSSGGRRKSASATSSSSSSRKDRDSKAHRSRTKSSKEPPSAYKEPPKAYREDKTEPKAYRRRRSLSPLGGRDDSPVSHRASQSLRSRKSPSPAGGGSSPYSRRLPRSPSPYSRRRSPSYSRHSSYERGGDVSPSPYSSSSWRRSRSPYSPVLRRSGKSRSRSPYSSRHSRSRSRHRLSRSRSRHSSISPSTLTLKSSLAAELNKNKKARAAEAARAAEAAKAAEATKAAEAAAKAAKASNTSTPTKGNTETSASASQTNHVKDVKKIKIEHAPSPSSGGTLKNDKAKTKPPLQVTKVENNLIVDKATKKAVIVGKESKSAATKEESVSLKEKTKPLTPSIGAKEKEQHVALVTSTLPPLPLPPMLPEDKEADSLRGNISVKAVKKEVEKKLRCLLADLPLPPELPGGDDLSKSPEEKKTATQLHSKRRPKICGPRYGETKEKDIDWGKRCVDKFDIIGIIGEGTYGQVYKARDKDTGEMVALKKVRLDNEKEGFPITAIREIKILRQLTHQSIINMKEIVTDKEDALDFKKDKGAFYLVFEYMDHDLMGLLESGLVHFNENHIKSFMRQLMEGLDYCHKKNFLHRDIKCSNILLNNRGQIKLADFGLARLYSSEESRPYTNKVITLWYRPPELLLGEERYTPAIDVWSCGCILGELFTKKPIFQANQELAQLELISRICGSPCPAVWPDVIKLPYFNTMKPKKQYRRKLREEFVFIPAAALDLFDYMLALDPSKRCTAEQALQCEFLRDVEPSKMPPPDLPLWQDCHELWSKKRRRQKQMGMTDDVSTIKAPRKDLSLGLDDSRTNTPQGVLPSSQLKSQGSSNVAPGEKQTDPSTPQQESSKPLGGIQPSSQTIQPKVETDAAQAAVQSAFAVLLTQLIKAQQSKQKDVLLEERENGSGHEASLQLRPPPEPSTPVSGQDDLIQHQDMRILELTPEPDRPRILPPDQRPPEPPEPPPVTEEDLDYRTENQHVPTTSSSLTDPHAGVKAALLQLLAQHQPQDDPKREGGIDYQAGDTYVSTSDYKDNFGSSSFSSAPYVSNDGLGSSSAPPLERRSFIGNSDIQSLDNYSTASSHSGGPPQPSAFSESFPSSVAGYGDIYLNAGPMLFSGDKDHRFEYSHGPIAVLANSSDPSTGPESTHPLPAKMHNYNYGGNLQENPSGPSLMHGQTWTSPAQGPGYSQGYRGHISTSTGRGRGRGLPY
Sequence of CDK12/Cyclin K (Q9NYV4 1-1481 isoform Q9NYV4-2): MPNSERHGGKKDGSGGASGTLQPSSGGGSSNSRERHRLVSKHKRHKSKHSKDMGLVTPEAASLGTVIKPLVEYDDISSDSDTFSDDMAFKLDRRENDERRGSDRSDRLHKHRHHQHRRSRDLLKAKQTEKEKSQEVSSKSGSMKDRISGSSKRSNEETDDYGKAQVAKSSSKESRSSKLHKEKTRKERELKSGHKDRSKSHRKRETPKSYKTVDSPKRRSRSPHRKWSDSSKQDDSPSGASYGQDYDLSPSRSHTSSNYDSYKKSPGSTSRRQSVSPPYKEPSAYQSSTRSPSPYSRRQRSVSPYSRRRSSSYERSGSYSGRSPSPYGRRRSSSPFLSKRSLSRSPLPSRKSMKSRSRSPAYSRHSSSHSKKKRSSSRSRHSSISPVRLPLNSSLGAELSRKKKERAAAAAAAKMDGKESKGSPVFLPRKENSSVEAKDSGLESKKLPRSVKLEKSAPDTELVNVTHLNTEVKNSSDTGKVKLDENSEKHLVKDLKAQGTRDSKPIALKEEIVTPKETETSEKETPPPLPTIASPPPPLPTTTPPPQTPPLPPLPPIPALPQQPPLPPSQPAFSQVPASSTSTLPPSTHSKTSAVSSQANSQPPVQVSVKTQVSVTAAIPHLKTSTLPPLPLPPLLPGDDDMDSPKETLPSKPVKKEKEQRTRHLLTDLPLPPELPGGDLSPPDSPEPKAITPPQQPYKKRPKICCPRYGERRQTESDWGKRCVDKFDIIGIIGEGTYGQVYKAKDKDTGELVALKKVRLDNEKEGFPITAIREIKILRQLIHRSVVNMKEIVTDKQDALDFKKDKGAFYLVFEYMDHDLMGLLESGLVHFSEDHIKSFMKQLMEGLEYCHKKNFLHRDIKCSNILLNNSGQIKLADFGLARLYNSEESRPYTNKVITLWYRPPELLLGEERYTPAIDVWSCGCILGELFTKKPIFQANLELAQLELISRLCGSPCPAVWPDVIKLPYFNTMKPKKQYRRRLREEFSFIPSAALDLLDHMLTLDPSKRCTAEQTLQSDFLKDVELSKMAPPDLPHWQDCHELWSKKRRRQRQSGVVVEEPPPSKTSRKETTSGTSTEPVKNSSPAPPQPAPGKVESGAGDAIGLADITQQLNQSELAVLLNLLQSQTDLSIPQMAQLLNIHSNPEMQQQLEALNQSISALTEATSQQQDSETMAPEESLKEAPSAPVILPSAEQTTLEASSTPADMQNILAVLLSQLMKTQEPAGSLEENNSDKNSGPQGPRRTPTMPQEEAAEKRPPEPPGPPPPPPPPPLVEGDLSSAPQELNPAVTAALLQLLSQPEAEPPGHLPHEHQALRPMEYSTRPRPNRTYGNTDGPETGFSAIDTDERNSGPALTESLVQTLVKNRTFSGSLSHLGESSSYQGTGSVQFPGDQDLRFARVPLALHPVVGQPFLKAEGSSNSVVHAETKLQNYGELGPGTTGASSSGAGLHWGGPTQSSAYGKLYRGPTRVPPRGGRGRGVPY
Sequence of CDK12/Cyclin K (O75909 whole entry partner): as the sequence (O75909 whole entry partner) above
Sequence of CDK7 (P50613 whole entry): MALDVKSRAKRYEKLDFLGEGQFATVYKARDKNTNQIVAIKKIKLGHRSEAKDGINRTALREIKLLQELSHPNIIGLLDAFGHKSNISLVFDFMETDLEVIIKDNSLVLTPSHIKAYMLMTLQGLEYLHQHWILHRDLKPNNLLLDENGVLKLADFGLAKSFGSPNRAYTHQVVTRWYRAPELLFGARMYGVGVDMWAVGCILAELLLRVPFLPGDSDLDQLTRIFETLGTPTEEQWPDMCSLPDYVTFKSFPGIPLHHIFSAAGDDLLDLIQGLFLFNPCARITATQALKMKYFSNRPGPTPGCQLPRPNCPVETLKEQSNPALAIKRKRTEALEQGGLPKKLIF

IC50 (CDK2/Cyclin E1; n=3 average ± SEM, n=2 average to 2 significant figures, read-out: IC50 (nM) Average*): 410 nM
IC50 (CDK2/Cyclin E1; read-out: IC50 (nM) Replicate 1): 370 nM
IC50 (CDK2/Cyclin E1; read-out: IC50 (nM) Replicate 2): 450 nM
Structure (SMILES): CC[C@H](CO)Nc1nc(Nc2cccc(-c3ccccn3)c2)c2ncn(C(C)C)c2n1 [(R) - DRF053]

pIC50 (CDK2/Cyclin E1; live HEK-293, 2 h, mean ± S.E.M. (n=3) or mean (n=2), read-out: IC50 for CDK/cyclin complexes, CDK2/E1): 6.39
Structure (SMILES): CC[C@H](CO)Nc1nc(Nc2cccc(-c3ccccn3)c2)c2ncn(C(C)C)c2n1 [(R)-DRF053]

inhibition at 10 µM (CDK7; [1]): 87.6%
inhibition at 10 µM (CDK7; [2]): 89.4%
inhibition at 10 µM (CDK7; [3]): 85.8%
inhibition at 10 µM (CDK8/Cyclin C; [1]): 29.8%
inhibition at 10 µM (CDK8/Cyclin C; [2]): 34.8%
inhibition at 10 µM (CDK8/Cyclin C; [3]): 24.8%
inhibition at 10 µM (CDK9/Cyclin K; [1]): 98.6%
inhibition at 10 µM (CDK9/Cyclin K; [2]): 98%
inhibition at 10 µM (CDK9/Cyclin K; [3]): 99.2%
inhibition at 10 µM (CDK12/Cyclin K; [1]): 52.7%
inhibition at 10 µM (CDK12/Cyclin K; [2]): 52.9%
inhibition at 10 µM (CDK12/Cyclin K; [3]): 52.5%
inhibition at 10 µM (CDK13/Cyclin K; [1]): 47.1%
inhibition at 10 µM (CDK13/Cyclin K; [2]): 44.4%
inhibition at 10 µM (CDK13/Cyclin K; [3]): 49.7%
inhibition at 10 µM (CDK20/Cyclin H; [2]): 30%
inhibition at 10 µM (CDK20/Cyclin H; [3]): 39.7%
inhibition at 10 µM (CDK19/Cyclin C; read-out: Inhibition at 10µM (%) Average, CDK19/C, average of replicates): 41.9%
inhibition at 10 µM (CDK19/Cyclin C; read-out: Inhibition at 10µM (%) Replicate 1, CDK19/C): 45.9%
inhibition at 10 µM (CDK19/Cyclin C; read-out: Inhibition at 10µM (%) Replicate 2, CDK19/C): 37.9%
inhibition at 10 µM (CDK10/Cyclin L2; read-out: Inhibition at 10µM (%) Average, CDK10/L2, average of replicates): 77%
inhibition at 10 µM (CDK10/Cyclin L2; read-out: Inhibition at 10µM (%) Replicate 1, CDK10/L2): 77.8%
inhibition at 10 µM (CDK10/Cyclin L2; read-out: Inhibition at 10µM (%) Replicate 2, CDK10/L2): 76.2%
Structure (SMILES): O=C(NC1CCNCC1)c1[nH]ncc1NC(=O)c1c(Cl)cccc1Cl [AT7519]
